These results are taken from patent US9018224B2, “Substituted cyclopropyl compounds useful as GPR119 agonists” (Merck Sharp & Dohme Corp., priority 2011, dated 2015).

pEC50: −log10 of the molar value.

The target of the assay is T1, human GPR119 (Homo sapiens, UniProt Q8TDV5).
T1 sequence (Q8TDV5 1-308 limits assumed): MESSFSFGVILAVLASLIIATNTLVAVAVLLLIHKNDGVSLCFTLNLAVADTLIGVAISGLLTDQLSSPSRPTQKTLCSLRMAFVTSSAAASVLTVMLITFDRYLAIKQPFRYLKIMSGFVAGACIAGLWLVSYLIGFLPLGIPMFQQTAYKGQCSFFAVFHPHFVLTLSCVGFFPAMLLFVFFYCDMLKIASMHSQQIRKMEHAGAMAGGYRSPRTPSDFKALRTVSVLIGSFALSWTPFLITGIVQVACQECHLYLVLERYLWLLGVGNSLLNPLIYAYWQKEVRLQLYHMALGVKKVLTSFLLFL
The assay can be described thus: Measurement of GPR119 signaling by cAMP (LANCE cAMP kit or HTRF) in HEK293 cells transfected with human GPR119. In kind it is cell-based. The conditions noted are these: agonist cAMP response in HEK293 cells stably transfected with human GPR119; patent does not say which of the two cAMP formats (LANCE or HTRF). Here is the method: Measurement of GPR119 Signaling Using LANCE 384-Well cAMP Kit
The adenylate cyclase assay was constructed following the LANCE™ cAMP Kit (Perkin Elmer, AD0264) instructions. […] The reaction was stopped by incubating with the supplied detection buffer containing the europium chelate of the Eu-SA/Biotin-cAMP tracer for 3 hours. The assay was performed in duplicate in a 384 well plate for duplicate plates. […] Basal activity was determined using a DMSO control and maximum response was defined as cAMP stimulation produced by an internal agonist control. Standard cAMP concentrations were assayed concurrently for conversion of fluorescence signal to cAMP level. The data was analyzed using 4-parameter curve fit in Microsoft Excel
Measurement of GPR119 Signaling Using a Cyclic AMP (cAMP) Homogenous Time Resolved Fluorescence (HTRF) Assay
Chinese hamster ovary (CHO) cell lines stably transfected with the permissive guanine nucleotide binding protein alpha 15 (Gα15) and murine GPR119 were maintained in DMEM media containing FBS, penicillin-streptomycin, puromycin, and G418 (geneticin). […] Agonist activation of the GPR119 receptor was measured in receptor transfected cells described above, treated with compounds of this invention, using a commercial homogenous time resolved fluorescence (HTRF) kit for measurement of cAMP (CisBio, Bedford, Mass.). The assay was performed in 96-well half-volume plates (murine) or 384-well plates (human) following the manufacturers instructions. Briefly, suspended cells were incubated with a dose titration of test compound at room temperature for 60 min, lysed, and incubated with HTRF reagents for an additional 60 min. The plate was read using an Envision multilabel reader (Perkin Elmer) adjusted to read time resolved fluorescence and the cAMP concentrations were extrapolated from a cAMP calibration curve. […] The concentration of test compound required to stimulate a half-maximal response (EC50), and efficacy as compared to an internal agonist control, was determined from a sigmoidal 4-parameter curve fit of the resulting plot of normalized activity versus compound concentration.
For orientation: In TR-FRET formats the signal depends on donor and acceptor labels being close together.
As a reminder, the pEC50 is −log10 of the EC50, conventionally taken in molar units. Higher therefore signals a low EC50. For `CCc1cnc(N2CCC([C@H]3C[C@H]3CCOc3ccc(CC(=O)N4CCC4)c(C)c3)CC2)nc1` [Example 16], the negative-log EC50 (pEC50) was 8.96.

`CC1(C)CN(C(=O)Cc2ccc(OCC[C@@H]3C[C@@H]3C3CCN(c4ncc(Cl)cn4)CC3)cc2F)Cc2nnc(C(F)(F)F)n21` [Example 179]: the pEC50 was 8.96.

The compound `COCc1cnc(N2CCC([C@H]3C[C@H]3CCOc3ccc(CC(=O)N4CCOCC4)cc3)CC2)nc1` [Example 10] showed a pEC50 of 8.08.

`CNC(=O)Cc1c(F)cc(OCC[C@@H]2C[C@@H]2C2CCN(c3ncc(COC)cn3)CC2)cc1F` [Example 227] showed a pEC50 of 8.60.

`O=C(Cc1ccc(OCC[C@@H]2C[C@@H]2C2CCN(c3ncc(Cl)cn3)CC2)cc1F)N1CCC(F)(F)C1` [Example 72] had a pEC50 of 9.30.

Regarding `O=C(Cc1ccc(OCC[C@@H]2C[C@@H]2C2CCN(c3ncc(Cl)cn3)CC2)cc1F)N1CCc2nc(C3CC3)sc2C1` [Example 184], the negative-log EC50 (pEC50) is 8.77.

`CN(CC(N)=O)C(=O)Cc1ccc(OCC[C@@H]2C[C@@H]2C2CCN(c3ncc(Cl)cn3)CC2)cc1F` [Example 159]: the negative-log EC50 (pEC50) was 8.43.

`CCc1nnc2n1CCN(C(=O)Cc1ccc(OCC[C@@H]3C[C@@H]3C3CCN(c4ncc(Cl)cn4)CC3)cc1F)C2` [Example 151] gave a negative logarithm of the EC50 (pEC50) of 8.33.

`O=C(Cc1ccc(OCC[C@@H]2C[C@@H]2C2CCN(c3ncc(Cl)cn3)CC2)cc1F)N1CCc2[nH]ncc2C1` [Example 139] gave a pEC50 of 8.70.

`O=C(Cc1ccc(OCC[C@@H]2C[C@@H]2C2CCN(c3ncc(Cl)cn3)CC2)cc1F)N1CC(O)(C(F)(F)F)C1` [Example 67] had a negative logarithm of the EC50 (pEC50) of 9.17.

For `Cn1ccc2c1CCN(C(=O)Cc1ccc(OCC[C@@H]3C[C@@H]3C3CCN(c4ncc(Cl)cn4)CC3)cc1F)C2` [Example 145], the pEC50 was 8.20.

With `O=C(Cc1ccc(OCC[C@@H]2C[C@@H]2C2CCN(c3ncc(Cl)cn3)CC2)cc1F)N1CCCC1` [Example 85], the negative-log EC50 (pEC50) was 9.21.

The compound `O=C(Cc1ccc(OCC[C@@H]2C[C@@H]2C2CCN(c3ncc(Cl)cn3)CC2)cc1F)N1Cc2cccnc2C1` [Example 123] gave a pEC50 of 9.11.

`CCC(CO)NC(=O)Cc1ccc(OCC[C@@H]2C[C@@H]2C2CCN(c3ncc(Cl)cn3)CC2)cc1F` (stereo partly drawn) [Example 114] gave a pEC50 of 8.43.

With `CC(CO)NC(=O)Cc1ccc(OCC[C@@H]2C[C@@H]2C2CCN(c3ncc(Cl)cn3)CC2)cc1F` (stereo partly drawn) [Example 116], the pEC50 was 8.04.

`CCc1cnc(N2CCC([C@H]3C[C@H]3CCOc3ccc(CC(=O)N4CCC4)c(C#N)c3)CC2)nc1` [Example 24] had a negative logarithm of the EC50 (pEC50) of 9.40.

`O=C(Cc1ccc(OCC[C@@H]2C[C@@H]2C2CCN(c3ncc(Cl)cn3)CC2)cc1F)N1CCc2[nH]c(C(F)(F)F)nc2C1` [Example 192] had a pEC50 of 8.68.

Compound `O=C(Cc1ccc(OCC[C@@H]2C[C@@H]2C2CCN(c3ncc(Cl)cn3)CC2)cc1F)N1CCc2cn[nH]c2C1` [Example 182] gave a pEC50 of 8.62.

Compound `O=C(Cc1ccc(OCC[C@@H]2C[C@@H]2C2CCN(c3ncc(Cl)cn3)CC2)cc1F)N1CC(F)C1` [Example 68] showed a negative-log EC50 (pEC50) of 9.48.

With `O=C(Cc1ccc(OCC[C@@H]2C[C@@H]2C2CCN(c3ncc(Cl)cn3)CC2)cc1F)N1CCc2ncccc2C1` [Example 198], the negative logarithm of the EC50 (pEC50) is 8.89.

Consider `COCc1cnc(N2CCC([C@H]3C[C@H]3CCOc3ccc(CC(=O)N4CCC4)c(Cl)c3)CC2)nc1` [Example 22], for which the negative-log EC50 (pEC50) was 9.08.

For the compound `CC[C@@H](CO)NC(=O)Cc1ccc(OCC[C@@H]2C[C@@H]2C2CCN(c3ncc(Cl)cn3)CC2)cc1F` [Example 103], the negative logarithm of the EC50 (pEC50) is 8.01.

Consider `Cn1nc(C(F)(F)F)c2c1CCN(C(=O)Cc1ccc(OCC[C@@H]3C[C@@H]3C3CCN(c4ncc(Cl)cn4)CC3)cc1F)C2` [Example 187], for which the pEC50 was 8.70.

`CC1CCN(C(=O)Cc2ccc(OCC[C@@H]3C[C@@H]3C3CCN(c4ncc(Cl)cn4)CC3)cc2F)CC1` [Example 99] had a negative-log EC50 (pEC50) of 8.40.

With `CN(CC(C)(C)C)C(=O)Cc1ccc(OCC[C@@H]2C[C@@H]2C2CCN(c3ncc(Cl)cn3)CC2)cc1F` [Example 168], the negative-log EC50 (pEC50) is 8.03.

Consider `C[C@H](CO)NC(=O)Cc1ccc(OCC[C@@H]2C[C@@H]2C2CCN(c3ncc(Cl)cn3)CC2)cc1F` [Example 113], for which the pEC50 is 8.41.

`CCN(C(=O)Cc1ccc(OCC[C@@H]2C[C@@H]2C2CCN(c3ncc(Cl)cn3)CC2)cc1F)C(C)C` [Example 102]: the negative logarithm of the EC50 (pEC50) was 8.52.

In turn, `COCc1cnc(N2CCC([C@H]3C[C@H]3CCOc3ccc(CC(=O)N4CCn5cnnc5C4)c(F)c3)CC2)nc1` [Example 59] had a pEC50 of 8.14.

`COCc1cnc(N2CCC([C@H]3C[C@H]3CCOc3cc(F)c(CC(=O)N4CCOCC4)c(F)c3)CC2)nc1` [Example 223] showed a pEC50 of 9.42.

As for `COCc1cnc(N2CCC([C@H]3C[C@H]3CCOc3cc(F)c(CC(=O)N(C)C)cc3F)CC2)nc1` [Example 209, 2-{2,5-difluoro-4-[2-((1S,2R)-2-{1-[5-(methoxymethyl)pyrimidin-2-yl]piperidin-4-yl}cyclopropyl)ethoxy]phenyl}-N, N-dimethylacetamide], the pEC50 was 8.80.

In the case of `COCc1cnc(N2CCC([C@H]3C[C@H]3CCOc3cc(F)c(CC(=O)N4CC(F)C4)c(F)c3)CC2)nc1` [Example 220], the negative logarithm of the EC50 (pEC50) was 9.85.

Compound `CC1CCC(N(C)C(=O)Cc2ccc(OCC[C@@H]3C[C@@H]3C3CCN(c4ncc(Cl)cn4)CC3)cc2F)CC1` (stereo partly drawn) [Example 161] had a negative logarithm of the EC50 (pEC50) of 8.43.

For `CCOc1cnc(N2CCC([C@H]3C[C@H]3CCOc3cc(F)c(CC(=O)N4CC(O)C4)c(F)c3)CC2)nc1` [Example 232], the pEC50 is 9.26.

`CC(C)(C)NC(=O)c1nnc2n1CCN(C(=O)Cc1ccc(OCC[C@@H]3C[C@@H]3C3CCN(c4ncc(Cl)cn4)CC3)cc1F)C2` [Example 178] gave a negative-log EC50 (pEC50) of 8.55.

As to `Cc1nnc(Cc2ccc(OCC[C@@H]3C[C@@H]3C3CCN(c4ncc(Cl)cn4)CC3)cc2F)o1` [Example 244, 5-chloro-2-{4-[(1R,2S)-2-(2-{3-fluoro-4-[(5-methyl-1,3,4-oxadizol-2-yl)methyl]phenoxy}ethyl)cyclopropyl]piperidin-1-yl}pyrimidine], the pEC50 was 8.29.

Compound `O=C(Cc1ccc(OCC[C@@H]2C[C@@H]2C2CCN(c3ncc(Cl)cn3)CC2)cc1)NC1CC1` [Example 2] had a pEC50 of 8.74.

Regarding `COc1cnc(N2CCC([C@H]3C[C@H]3CCOc3ccc(CC(=O)N4CC(F)C4)c(F)c3)CC2)nc1` [Example 39], the negative logarithm of the EC50 (pEC50) was 9.32.

Compound `COCc1cnc(N2CCC([C@H]3C[C@H]3CCOc3ccc(CC(=O)N4CCc5nn[nH]c5C4)c(F)c3)CC2)nc1` [Example 57] gave a pEC50 of 8.52.

The compound `O=C(Cc1ccc(OCC[C@@H]2C[C@@H]2C2CCN(c3ncc(Cl)cn3)CC2)cc1F)N1CCc2nccnc2C1` [Example 125] had a negative-log EC50 (pEC50) of 9.02.

Compound `CC1(C)CCN1C(=O)Cc1ccc(OCC[C@@H]2C[C@@H]2C2CCN(c3ncc(Cl)cn3)CC2)cc1F` [Example 97] had a pEC50 of 8.49.

Turning to `O=C(Cc1ccc(OCC[C@@H]2C[C@@H]2C2CCN(c3ncc(Cl)cn3)CC2)cc1F)N1CCC(O)CC1` [Example 163], the pEC50 was 8.77.

Turning to `CN(CC1CCOCC1)C(=O)Cc1ccc(OCC[C@@H]2C[C@@H]2C2CCN(c3ncc(Cl)cn3)CC2)cc1F` [Example 157], the negative logarithm of the EC50 (pEC50) was 8.62.

Consider `O=C(Cc1ccc(OCC[C@@H]2C[C@@H]2C2CCN(c3ncc(Cl)cn3)CC2)cc1F)N1CCn2c(Cc3ccccc3)cnc2C1` [Example 181], for which the negative logarithm of the EC50 (pEC50) was 8.21.

Consider `COc1cnc(N2CCC([C@H]3C[C@H]3CCOc3cc(F)c(CC(=O)N4CC(OC)C4)c(F)c3)CC2)nc1` [Example 211], for which the pEC50 was 9.96.

Consider `O=C(Cc1ccc(OCC[C@@H]2C[C@@H]2C2CCN(c3ncc(Cl)cn3)CC2)cc1F)N1CCc2cccnc2C1` [Example 130], for which the pEC50 was 8.96.
